Values quoted from earlier work as cited in patent publication US4988517A, “Method and composition for inhibiting colon carcinogenesis” (American Health Foundation, priority 1988, dated 1991).

Columns and labels:
[1] = tested on: azoxymethane ("AOM")-induced colon, kidney, and hepatocarcinogenesis; conditions: 50 ppm in semipurified high fat diet, 2 wk before, during, 1 wk after carcinogen, liver; cited from earlier work
[2] = tested on: benzo(a) pyrene-induced forestomach tumors; conditions: mice; cited from earlier work
[3] = 6 ppm selenium in the form of selenomethionine; cited from earlier work
[4] = tested on: cancer induced by a variety of chemical carcinogens; conditions: diet or drinking water; colon, mammary gland, pancreas; cited from earlier work
[5] = rat, in vivo; cited from earlier work
[6] = tested on: colon carcinogenesis; conditions: initiation phase; cited from earlier work

COc1ccc([SeH])cc1 [MBS, p-methoxybenzenenselenol, reference compound]
Inhibition of AOM-induced carcinogenesis [1]: inhibited azoxymethane ("AOM")-induced colon, kidney, and hepatocarcinogenesis in rats | Inhibition of benzo(a)pyrene-induced forestomach tumors [2]: effective inhibitors of benzo(a) pyrene-induced forestomach tumors in mice

C[Se]CC[C@H](N)C(=O)O [selenomethionine]
Liver damage [3]: caused liver damage as indicated by extensive necrosis and fibrosis

O=[Se](O)O [sodium selenite]
Protection against cancer induction [4]: protects against cancer induced by a variety of chemical carcinogens | Toxicity relative to BSC [5]: more toxic than BSC | Inhibition of colon carcinogenesis [6]: does not inhibit colon carcinogenesis during the initiation phase
